Molecules are shown by their SMILES. Where two headings read alike, the source gives them in different places.

Usually EC50 stands for the concentration needed to bring the measured effect to its halfway point.

The target of one experiment is rat mGlu3 receptor (Rattus norvegicus (Rat), UniProt P31422). The experiment in a line: mGlu3 in vitro GIRK thallium flux assay. It counts as cell-based. Conditions: NAM; 2.5 min compound incubation; EC80 glutamate; HEK-293 GIRK cells. The protocol: (§1) All cell culture reagents were purchased from Invitrogen Corp. (Carlsbad, Calif.) unless otherwise noted. Compound activity at the group II (mGlu2 and mGlu3) mGlus was assessed using thallium flux through GIRK channels. Briefly, cells were plated into 384-well, black-walled, clear-bottomed poly-D-lysine-coated plates at a density of 15,000 cells/20 μL/well in DMEM containing 10% dialyzed FBS, 20 mM HEPES, and 100 units/mL penicillin/streptomycin (assay media). Plated cells were incubated overnight at 37° C. in the presence of 5% CO2. […] Cells were incubated for 1 h at room temperature, and the dye exchanged to assay buffer using an ELX405, leaving 20 μL/well. Test compounds were diluted to 2 times their final desired concentration in assay buffer (0.3% DMSO final concentration). […] Cell plates and compound plates were loaded onto a kinetic imaging plate reader (FDSS 6000 or 7000; Hamamatsu Corporation, Bridgewater, N.J.). Appropriate baseline readings were taken (10 images at 1 Hz; excitation, 470±20 nm; emission, 540±30 nm) and test compounds were added in a 20 μL volume and incubated for either 2.5 min or 60 min as indicated before the addition of 10 μL of thallium buffer with or without agonist. After the addition of agonist, data were collected for approximately an additional 2.5 min. Data were analyzed using Excel (Microsoft Corp, Redmond, Wash.). The slope of the fluorescence increase beginning 5 s after thallium/agonist addition and ending 15 s after thallium/agonist addition was calculated, corrected to vehicle and maximal agonist control slope values, and plotted in using either XLfit (ID Business Solutions Ltd) or Prism software (GraphPad Software, San Diego, Calif.) to generate concentration-response curves. Potencies were calculated from fits using a four-point parameter logistic equation. For concentration-response curve experiments, compounds were serially diluted 1:3 into 10 point concentration response curves and were transferred to daughter plates using an Echo acoustic plate reformatter (Labcyte, Sunnyvale, Calif.). Test compounds were applied and followed by EC80 concentrations of glutamate.

Another experiment concerns the target rat mGlu2 receptor (Rattus norvegicus (Rat), UniProt P31421). Briefly: mGlu2 in vitro GIRK thallium flux assay. It counts as cell-based. The following applies: NAM, EC80 glutamate, HEK-293 GIRK cells. Here is the method:
as §1

Where [1] appears, read: 2.5 min compound incubation, read-out: mGlu2 EC50 (μM) (2.5 min).
Setting [2] is: mGlu2 EC50 (μM) (60 min), 60 min compound incubation.
The mark [3] stands for this setting: read-out: mGlu2 EC50 (μM) (60 min), 60 min compound incubation.

rat mGlu3 receptor, sequence (P31422 23-879): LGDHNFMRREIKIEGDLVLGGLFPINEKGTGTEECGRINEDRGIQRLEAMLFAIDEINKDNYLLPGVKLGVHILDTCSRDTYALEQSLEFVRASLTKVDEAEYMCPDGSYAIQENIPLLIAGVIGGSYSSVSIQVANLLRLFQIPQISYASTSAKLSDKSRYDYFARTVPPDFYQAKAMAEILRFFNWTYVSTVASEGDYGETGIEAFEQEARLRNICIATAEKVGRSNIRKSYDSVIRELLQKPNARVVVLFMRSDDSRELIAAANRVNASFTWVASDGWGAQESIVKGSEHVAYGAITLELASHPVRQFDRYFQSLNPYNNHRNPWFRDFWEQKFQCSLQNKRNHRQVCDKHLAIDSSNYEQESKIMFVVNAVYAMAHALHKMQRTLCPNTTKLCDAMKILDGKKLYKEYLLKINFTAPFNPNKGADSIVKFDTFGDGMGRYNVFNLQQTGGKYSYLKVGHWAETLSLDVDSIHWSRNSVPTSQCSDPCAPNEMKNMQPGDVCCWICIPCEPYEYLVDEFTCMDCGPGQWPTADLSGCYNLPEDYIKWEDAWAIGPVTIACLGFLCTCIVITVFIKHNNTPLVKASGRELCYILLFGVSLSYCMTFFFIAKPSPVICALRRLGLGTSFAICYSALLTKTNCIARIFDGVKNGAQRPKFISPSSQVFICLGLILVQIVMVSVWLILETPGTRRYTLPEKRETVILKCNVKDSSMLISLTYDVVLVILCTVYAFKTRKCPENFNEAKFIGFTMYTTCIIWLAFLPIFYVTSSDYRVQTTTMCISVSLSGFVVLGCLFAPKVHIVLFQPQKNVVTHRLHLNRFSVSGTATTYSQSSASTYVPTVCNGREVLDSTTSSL
rat mGlu2 receptor, sequence (P31421 19-872): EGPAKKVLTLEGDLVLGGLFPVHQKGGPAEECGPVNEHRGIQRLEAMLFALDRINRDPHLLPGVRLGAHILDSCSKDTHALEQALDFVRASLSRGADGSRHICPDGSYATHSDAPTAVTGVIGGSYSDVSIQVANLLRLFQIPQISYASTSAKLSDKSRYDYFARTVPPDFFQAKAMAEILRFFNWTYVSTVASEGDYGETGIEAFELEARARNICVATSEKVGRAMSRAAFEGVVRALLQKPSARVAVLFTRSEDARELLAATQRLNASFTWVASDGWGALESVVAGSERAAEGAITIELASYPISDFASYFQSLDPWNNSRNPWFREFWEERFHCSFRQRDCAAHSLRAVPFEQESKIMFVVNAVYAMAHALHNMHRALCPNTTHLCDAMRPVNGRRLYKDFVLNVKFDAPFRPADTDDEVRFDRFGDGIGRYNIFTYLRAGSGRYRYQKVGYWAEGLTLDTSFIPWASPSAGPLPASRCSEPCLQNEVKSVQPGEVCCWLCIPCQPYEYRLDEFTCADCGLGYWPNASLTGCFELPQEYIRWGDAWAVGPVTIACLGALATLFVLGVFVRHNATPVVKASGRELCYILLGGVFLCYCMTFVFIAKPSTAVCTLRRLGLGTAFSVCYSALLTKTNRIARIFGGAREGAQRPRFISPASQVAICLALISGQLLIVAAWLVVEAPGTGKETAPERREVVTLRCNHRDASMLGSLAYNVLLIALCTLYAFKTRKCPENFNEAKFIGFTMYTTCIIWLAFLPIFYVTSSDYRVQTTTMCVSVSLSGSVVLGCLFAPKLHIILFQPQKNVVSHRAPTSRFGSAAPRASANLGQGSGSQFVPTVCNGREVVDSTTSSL

For `COc1ccc(-c2nc(-c3cccc(-c4cccc(C(=O)O)c4)c3)cs2)cc1` [Example 31, 3-{3-[2-(4-Methoxyphenyl)-1,3-thiazol-4-yl]phenyl}benzoic acid], the EC50 came out at 3.09 µM on rat mGlu3 receptor, 1.23 µM on rat mGlu2 receptor (setting [1]) and 0.67 µM on rat mGlu2 receptor (setting [2]).
For the compound `O=C(O)c1cccc(-c2cccc(-c3csc(-c4ccc5ccccc5c4)n3)c2)c1` [Example 32, 3-[3-(2-(2-Naphthyl)-1,3-thiazol-4-yl)phenyl]benzoic acid], the EC50 was above 30 µM on rat mGlu3 receptor, above 10 µM on rat mGlu2 receptor (setting [1]) and 4.98 µM at rat mGlu2 receptor (setting [2]).
The corresponding values for `O=C(O)c1cccc(-c2cccc(-c3csc(-c4cccc(C(=O)O)c4)n3)c2)c1` [Example 33, 3-{4-[3-(3-Carboxyphenyl)phenyl]-1,3-thiazol-2-yl}benzoic acid] are above 10 µM, 4.83 µM and above 10 µM.
In the case of `O=C(O)c1cccc(-c2cccc(-c3csc(-c4ccc5c(c4)OCCO5)n3)c2)c1` [Example 34, 3-[3-(2-(2H,3H-benzo[e]1,4-dioxin-6-yl)-1,3-thiazol-4-yl)phenyl]benzoic acid], the EC50 on rat mGlu3 receptor is above 10 µM; on rat mGlu2 receptor (setting [1]) it was above 10 µM; on rat mGlu2 receptor (setting [3]) it was 0.28 µM.
Consider `O=C(O)c1cccc(-c2cccc(-c3csc(-c4ccc(Cl)nc4)n3)c2)c1` [Example 35, 3′-(2-(6-Chloropyridin-3-yl)thiazol-4-yl)biphenyl-3-carboxylic Acid], for which the EC50 at rat mGlu3 receptor is above 10 µM; at rat mGlu2 receptor (setting [1]), 3.83 µM; at rat mGlu2 receptor (setting [2]) it was 0.27 µM.
As for `O=C(O)c1cccc(-c2cccc(-c3csc(/C=C/c4ccccc4)n3)c2)c1` [Example 36, (E)-3′-(2-Styrylthiazol-4-yl)biphenyl-3-carboxylic Acid], the 50% effective concentration (EC50) is above 10 µM at rat mGlu3 receptor, 3.47 µM at rat mGlu2 receptor (setting [1]) and above 10 µM at rat mGlu2 receptor (setting [2]).
As for `c1ccc(-c2nc(-c3cccc(-c4cccc(-c5nn[nH]n5)c4)c3)cs2)cc1` [Example 37, 4-(3′-(2H-Tetrazol-5-yl)biphenyl-3-yl)-2-phenylthiazole], the figures for the EC50 at rat mGlu3 receptor, on rat mGlu2 receptor (setting [1]) and at rat mGlu2 receptor (setting [3]) were above 10 µM, 2.98 µM and 1.72 µM, respectively.
Regarding `O=C(O)c1cccc(-c2cccc(-c3nsc(-c4ccccc4)n3)c2)c1` [Example 39, 3′-(5-Phenyl-1,2,4-thiadiazol-3-yl)biphenyl-3-carboxylic Acid], the EC50 at rat mGlu3 receptor was 2.28 µM; at rat mGlu2 receptor (setting [1]) it was 0.32 µM; at rat mGlu2 receptor (setting [2]) it was 0.05 µM.
`O=C(O)c1cc(F)cc(-c2cccc(-c3nsc(-c4ccccc4)n3)c2)c1` [Example 40, 5-Fluoro-3′-(5-phenyl-1,2,4-thiadiazol-3-yl)biphenyl-3-carboxylic Acid]: the results for the EC50 at rat mGlu3 receptor, on rat mGlu2 receptor (setting [1]) and at rat mGlu2 receptor (setting [2]) were 2.78 µM, 0.4 µM and 0.1 µM, respectively.
As to `O=C(O)c1ccc(F)c(-c2cccc(-c3nsc(-c4ccccc4)n3)c2)c1` [Example 41, 6-Fluoro-3′-(5-phenyl-1,2,4-thiadiazol-3-yl)biphenyl-3-carboxylic Acid], the EC50 on rat mGlu3 receptor was above 10 µM; on rat mGlu2 receptor (setting [1]), 0.89 µM; at rat mGlu2 receptor (setting [2]), 0.11 µM.
With `O=C(O)c1cc(-c2cccc(-c3nsc(-c4ccoc4)n3)c2)ccc1F` [Example 42, 4-Fluoro-3′-(5-(furan-3-yl)-1,2,4-thiadiazol-3-yl)biphenyl-3-carboxylic Acid], the values for the EC50 at rat mGlu3 receptor, at rat mGlu2 receptor (setting [1]) and at rat mGlu2 receptor (setting [2]) were above 10 µM, 3.63 µM and 3.71 µM, respectively.
Take `O=C(O)c1cccc(-c2cccc(-c3cc(-c4ccccc4)sn3)c2)c1` [Example 44, 3′-(5-Phenylisothiazol-3-yl)-[1,1′-biphenyl]-3-carboxylic Acid]: the EC50 at rat mGlu3 receptor was above 10 µM; on rat mGlu2 receptor (setting [1]), 0.68 µM; on rat mGlu2 receptor (setting [3]), 0.18 µM.
On to `O=C(O)c1cc(-c2cccc(-c3csc(-c4ccccc4)c3)c2)ccc1F` [Example 45, 4-Fluoro-3′-(5-phenylthiophen-3-yl)-[1,1′-biphenyl]-3-carboxylic Acid], for which the EC50 on rat mGlu3 receptor, on rat mGlu2 receptor (setting [1]) and at rat mGlu2 receptor (setting [2]) was above 10 µM throughout.
Turning to `O=C(O)c1cccc(-c2cccc(-c3coc(-c4ccccc4)c3)c2)c1` [Example 46, 3′-(5-phenylfuran-3-yl)biphenyl-3-carboxylic Acid], the EC50 on rat mGlu3 receptor is above 30 µM; on rat mGlu2 receptor (setting [1]), above 10 µM; at rat mGlu2 receptor (setting [2]), above 10 µM.
For `O=C(O)c1cccc(-c2cccc(-c3coc(-c4ccccc4)n3)c2)c1` [Example 47, 3′-(2-Phenyloxazol-4-yl)-[1,1′-biphenyl]-3-carboxylic Acid], the EC50 was above 30 µM on rat mGlu3 receptor, above 10 µM on rat mGlu2 receptor (setting [1]) and above 10 µM at rat mGlu2 receptor (setting [2]).
With `O=C(O)c1cccc(-c2cccc(-c3noc(-c4ccccc4)n3)c2)c1` [Example 48, 3′-(5-Phenyl-1,2,4-oxadiazol-3-yl)-[1,1′-biphenyl]-3-carboxylic Acid], the concentration giving a half-maximal response (EC50) at rat mGlu3 receptor was above 10 µM; on rat mGlu2 receptor (setting [1]), 1.33 µM; at rat mGlu2 receptor (setting [2]) it was 0.79 µM.
`O=C(O)c1cccc(-c2cccc(-c3nc(-c4ccccc4)n(-c4ccccc4)n3)c2)c1` [Example 49A, 3′-(1,5-Diphenyl-1H-1,2,4-triazol-3-yl)-[1,1′-biphenyl]-3-carboxylic Acid]: the EC50 on rat mGlu3 receptor is 1.36 µM; at rat mGlu2 receptor (setting [1]), above 10 µM; on rat mGlu2 receptor (setting [2]), above 10 µM.
`Cn1nc(-c2cccc(-c3cccc(C(=O)O)c3)c2)nc1-c1ccccc1` [Example 50, 3′-(1-Methyl-5-phenyl-1H-1,2,4-triazol-3-yl)-[1,1′-biphenyl]-3-carboxylic Acid]: the figures for the EC50 at rat mGlu3 receptor, on rat mGlu2 receptor (setting [1]) and at rat mGlu2 receptor (setting [2]) were above 10 µM, 0.59 µM and 1.48 µM, respectively.
Take `O=C(O)c1cc(-c2cccc(-c3nc(-c4ccccc4)n(-c4ccccc4)n3)c2)ccc1F` [Example 51, 3′-(1,5-Diphenyl-1H-1,2,4-triazol-3-yl)-4-fluoro-[1,1′-biphenyl]-3-carboxylic acid]: the EC50 at rat mGlu3 receptor was 5.8 µM; on rat mGlu2 receptor (setting [1]), above 10 µM; on rat mGlu2 receptor (setting [2]), above 10 µM.
For the compound `O=C(O)c1cc(F)cc(-c2cccc(-c3nc(-c4ccccc4)n(-c4ccccc4)n3)c2)c1` [Example 52, 3′-(1,5-Diphenyl-1H-1,2,4-triazol-3-yl)-5-fluorobiphenyl-3-carboxylic Acid], the EC50 at rat mGlu3 receptor is 3.11 µM; on rat mGlu2 receptor (setting [1]), above 10 µM; at rat mGlu2 receptor (setting [2]), above 10 µM.
On to `O=C(O)c1cccc(-c2cccc(-c3nc(-c4cccs4)n(-c4ccccc4)n3)c2)c1` [Example 53, 3′-(1-Phenyl-5-(thiophen-2-yl)-1H-1,2,4-triazol-3-yl)-[1,1′-biphenyl]-3-carboxylic Acid], for which the values for the EC50 on rat mGlu3 receptor, at rat mGlu2 receptor (setting [1]) and on rat mGlu2 receptor (setting [2]) were 4.29 µM, above 10 µM and 3.67 µM, respectively.
Turning to `O=C(O)c1cccc(-c2cccc(-c3nc(-c4ccccc4)n(Cc4ccccc4)n3)c2)c1` [Example 54, 3′-(1-Benzyl-5-phenyl-1H-1,2,4-triazol-3-yl)-[1,1′-biphenyl]-3-carboxylic Acid], the figures for the EC50 on rat mGlu3 receptor, at rat mGlu2 receptor (setting [1]) and on rat mGlu2 receptor (setting [2]) were 3.9 µM, above 10 µM and 2.71 µM, respectively.
As for `COc1ccc(-n2nc(-c3cccc(-c4cccc(C(=O)O)c4)c3)nc2-c2ccccc2)cc1` [Example 55, 3′-(1-(4-Methoxyphenyl)-5-phenyl-1H-1,2,4-triazol-3-yl)-[1,1′-biphenyl]-3-carboxylic Acid], the EC50 is 2.96 µM on rat mGlu3 receptor, above 10 µM on rat mGlu2 receptor (setting [1]) and 6.58 µM at rat mGlu2 receptor (setting [2]).
`O=C(O)c1cccc(-c2cccc(-c3nc(-c4ccccc4)n(-c4cccc(F)c4)n3)c2)c1` [Example 56, 3′-(1-(3-Fluorophenyl)-5-phenyl-1H-1,2,4-triazol-3-yl)-[1,1′-biphenyl]-3-carboxylic Acid]: the concentration giving a half-maximal response (EC50) is above 10 µM on rat mGlu3 receptor, 3.22 µM at rat mGlu2 receptor (setting [1]) and above 10 µM on rat mGlu2 receptor (setting [2]).
Consider `O=C(O)c1cccc(-c2cccc(-c3nc(-c4ccccc4)n(-c4cccc5ccccc45)n3)c2)c1` [Example 57, 3′-(1-(Naphthalen-1-yl)-5-phenyl-1H-1,2,4-triazol-3-yl)-[1,1′-biphenyl]-3-carboxylic Acid], for which the EC50 on rat mGlu3 receptor, on rat mGlu2 receptor (setting [1]) and at rat mGlu2 receptor (setting [2]) was above 10 µM throughout.
Consider `O=C(O)c1cccc(-c2cccc(-c3nc(-c4ccc(C(F)(F)F)nc4)n(-c4ccccc4)n3)c2)c1` [Example 58, 3′-(1-Phenyl-5-(6-(trifluoromethyl)pyridin-3-yl)-1H-1,2,4-triazol-3-yl)-[1,1′-biphenyl]-3-carboxylic Acid], for which the results for the EC50 on rat mGlu3 receptor, on rat mGlu2 receptor (setting [1]) and at rat mGlu2 receptor (setting [2]) were 5.56 µM, above 10 µM and above 10 µM, respectively.
